Assay results reported in US8883809B2, “Isoxazole/isoxazoline/combretastatin linked dihydroquinazolinone hybrids as potential anticancer agents and process for the preparation thereof” (Council of Scientific & Industrial Research, priority 2008, dated 2014).
Read-outs that look alike come from different tables or passages of the source.

Columns and labels:
[1] = tested on: Prostate cancer cell lines; assay: NCI in vitro cytotoxicity, panel average
MDA-MB-231/ATCC = assay: NCI in vitro cytotoxicity, SRB assay; conditions: Homo sapiens
CCRF-CEM = assay: NCI in vitro cytotoxicity, SRB assay; conditions: Homo sapiens
HCT-116 = assay: NCI in vitro cytotoxicity, SRB assay; conditions: Homo sapiens
OVCAR-5 = assay: NCI in vitro cytotoxicity, SRB assay; conditions: Homo sapiens
OVCAR-4 = assay: NCI in vitro cytotoxicity, SRB assay; conditions: Homo sapiens
A549/ATCC = assay: NCI in vitro cytotoxicity, SRB assay; conditions: Homo sapiens
NCI-H23 = assay: NCI in vitro cytotoxicity, SRB assay; conditions: Homo sapiens
Description: (§1) The results are expressed as percent of cell growth determined relative to that of untreated control cells (Table 2).

CAKI-1 = assay: NCI in vitro cytotoxicity, SRB assay; conditions: Homo sapiens
U251 = assay: NCI in vitro cytotoxicity, SRB assay; conditions: Homo sapiens, U-251
IGROV1 = assay: NCI in vitro cytotoxicity, SRB assay; conditions: Homo sapiens, IGROV-1
PC-3 = assay: NCI in vitro cytotoxicity, SRB assay; conditions: Homo sapiens
DU-145 = assay: NCI in vitro cytotoxicity, SRB assay; conditions: Homo sapiens
LOX IMVI = assay: NCI in vitro cytotoxicity, SRB assay; conditions: Homo sapiens
HCC-2998 = assay: NCI in vitro cytotoxicity, SRB assay; conditions: Homo sapiens
Description: as §1

SK-OV-3 = assay: NCI in vitro cytotoxicity, SRB assay; conditions: Homo sapiens
[2] = tested on: Non-small-cell lung cancer cell lines; assay: NCI in vitro cytotoxicity, panel average
Renal cancer cell lines = assay: NCI in vitro cytotoxicity, panel average
Melanoma cell lines = assay: NCI in vitro cytotoxicity, panel average
SK-MEL-28 = assay: NCI in vitro cytotoxicity, SRB assay; conditions: Homo sapiens
HCT-15 = assay: NCI in vitro cytotoxicity, SRB assay; conditions: Homo sapiens
SNB-75 = assay: NCI in vitro cytotoxicity, SRB assay; conditions: Homo sapiens
EKVX = assay: NCI in vitro cytotoxicity, SRB assay; conditions: Homo sapiens
KM12 = assay: NCI in vitro cytotoxicity, SRB assay; conditions: Homo sapiens
[3] = tested on: forty nine human tumour cell lines; assay: NCI in vitro cytotoxicity screen, SRB assay, 48 h continuous exposure
786-0 = assay: NCI in vitro cytotoxicity, SRB assay; conditions: Homo sapiens
ACHN = assay: NCI in vitro cytotoxicity, SRB assay; conditions: Homo sapiens
UACC-62 = assay: NCI in vitro cytotoxicity, SRB assay; conditions: Homo sapiens
MDA-MB-435 = assay: NCI in vitro cytotoxicity, SRB assay; conditions: Homo sapiens
NCI/ADRRES = assay: NCI in vitro cytotoxicity, SRB assay; conditions: Homo sapiens, NCI/ADR-RES
OVCAR-8 = assay: NCI in vitro cytotoxicity, SRB assay; conditions: Homo sapiens
UACC-257 = assay: NCI in vitro cytotoxicity, SRB assay; conditions: Homo sapiens
Breast cancer cell lines = assay: NCI in vitro cytotoxicity, panel average
SF-268 = assay: NCI in vitro cytotoxicity, SRB assay; conditions: Homo sapiens
SF-295 = assay: NCI in vitro cytotoxicity, SRB assay; conditions: Homo sapiens
UO-31 = assay: NCI in vitro cytotoxicity, SRB assay; conditions: Homo sapiens
MDA-MB-468 = assay: NCI in vitro cytotoxicity, SRB assay; conditions: Homo sapiens
HS 578T = assay: NCI in vitro cytotoxicity, SRB assay; conditions: Homo sapiens
MCF7 = assay: NCI in vitro cytotoxicity, SRB assay; conditions: Homo sapiens
A498 = assay: NCI in vitro cytotoxicity, SRB assay; conditions: Homo sapiens
SW-620 = assay: NCI in vitro cytotoxicity, SRB assay; conditions: Homo sapiens
T-47D = assay: NCI in vitro cytotoxicity, SRB assay; conditions: Homo sapiens, T47D
K-562 = assay: NCI in vitro cytotoxicity, SRB assay; conditions: Homo sapiens, K562
OVCAR-3 = assay: NCI in vitro cytotoxicity, SRB assay; conditions: Homo sapiens
Leukemia cell lines = assay: NCI in vitro cytotoxicity, panel average
Colon cancer cell lines = assay: NCI in vitro cytotoxicity, panel average
M14 = assay: NCI in vitro cytotoxicity, SRB assay; conditions: Homo sapiens
HL-60(TB) = assay: NCI in vitro cytotoxicity, SRB assay; format: cell-based; conditions: Homo sapiens; Leukemia HL-60(TB)
HOP-92 = assay: NCI in vitro cytotoxicity, SRB assay; conditions: Homo sapiens
Description: as §1

NCI-H522 = assay: NCI in vitro cytotoxicity, SRB assay; conditions: Homo sapiens
Description: as §1

SN12C = assay: NCI in vitro cytotoxicity, SRB assay; conditions: Homo sapiens
SK-MEL-5 = assay: NCI in vitro cytotoxicity, SRB assay; conditions: Homo sapiens
MOLT-4 = assay: NCI in vitro cytotoxicity, SRB assay; conditions: Homo sapiens
NCI-H460 = assay: NCI in vitro cytotoxicity, SRB assay; conditions: Homo sapiens
Description: as §1

CNS cancer cell lines = assay: NCI in vitro cytotoxicity, panel average; conditions: average of the panel's cell lines
SF-539 = assay: NCI in vitro cytotoxicity, SRB assay; conditions: Homo sapiens
SNB-19 = assay: NCI in vitro cytotoxicity, SRB assay; conditions: Homo sapiens
[4] = tested on: Ovarian cancer cell lines; assay: NCI in vitro cytotoxicity, panel average
RPMI-8226 = assay: NCI in vitro cytotoxicity, SRB assay; conditions: Homo sapiens
[5] = Homo sapiens, read-out: Log10 LC50 (converted)

SMILES: COc1cc(C2NC(=O)c3ccccc3N2)ccc1OCCCCCOc1c(OC)cc(C2=NOC(c3cc(OC)c(OC)c(OC)c3)C2)cc1OC (centres unmarked) [Compound 7d, 2-[4-(5-{2,6-Dimethoxy-4-[5-(3,4,5-trimethoxy-phenyl)-4,5-dihydro-isoxazol-3-yl]-phenoxy}-pentyloxy)-3-methoxy-phenyl]-2,3-dihydro-1H-quinazolin-4-one]
- CC50 [1, 5]: ≥ 100 µM
- Log10 GI50 ([1]; Prostate, average of the panel's cell lines): −5.39 mol/L
- GI50 (MDA-MB-231/ATCC): 14.7 µM
- GI50 (CCRF-CEM): 0.62 µM
- GI50 (HCT-116): 0.26 µM
- GI50 (OVCAR-5): 31.7 µM
- GI50 (OVCAR-4): 0.49 µM
- GI50 (A549/ATCC): 15.7 µM
- GI50 (NCI-H23): 0.38 µM
- GI50 (CAKI-1): 18 µM
- GI50 (U251): 25.2 µM
- GI50 (IGROV1): 0.32 µM
- GI50 (PC-3): 0.74 µM
- GI50 (DU-145): 22.4 µM
- GI50 (LOX IMVI): 19.5 µM
- GI50 (HCC-2998): 0.06 µM
- GI50 (SK-OV-3): 38.5 µM
- CC50 [2, 5]: ≥ 100 µM
- Log10 GI50 ([2]; Non-small-cell lung, average of the panel's cell lines): −4.97 mol/L
- CC50 (Renal cancer cell lines; [5]): ≥ 100 µM
- Log10 GI50 (Renal cancer cell lines; Renal, average of the panel's cell lines): −4.72 mol/L
- CC50 (Melanoma cell lines; [5]): ≥ 100 µM
- Log10 GI50 (Melanoma cell lines; Melanoma, average of the panel's cell lines): −5.69 mol/L
- GI50 (SK-MEL-28): 3.24 µM
- GI50 (HCT-15): 15.9 µM
- GI50 (SNB-75): 34.2 µM
- GI50 (EKVX): 0.36 µM
- GI50 (KM12): 10.4 µM
- GI50 ([3]; Homo sapiens, read-out: GI50 value): < 40 µM
- GI50 ([3]; Homo sapiens, read-out: Log10 GI50 mean graph midpoint (MG_MID) (converted)): 5.25 µM
- CC50 ([3]; Homo sapiens, read-out: Log10 LC50 mean graph midpoint (MG_MID) (converted)): 95.5 µM
- in vitro cytotoxicity (in words) ([3]; cancer cell lines): significant cytotoxicity
- Log10 TGI mean graph midpoint (MG_MID) ([3]; human tumour cell lines): −4.18
- GI50 (786-0): 31.8 µM
- GI50 (ACHN): 0.95 µM
- GI50 (UACC-62): 0.99 µM
- GI50 (MDA-MB-435): 0.6 µM
- GI50 (NCI/ADRRES): 10.6 µM
- GI50 (OVCAR-8): 25.7 µM
- GI50 (UACC-257): 0.29 µM
- Log10 GI50 (Breast cancer cell lines; Breast, average of the panel's cell lines): −5.82 mol/L
- CC50 (Breast cancer cell lines; [5]): ≥ 100 µM
- GI50 (SF-268): 20.2 µM
- GI50 (SF-295): 16.4 µM
- GI50 (UO-31): 21.4 µM
- GI50 (MDA-MB-468): 0.08 µM
- GI50 (HS 578T): 15 µM
- GI50 (MCF7): 0.45 µM
- GI50 (A498): 19.3 µM
- GI50 (SW-620): 21 µM
- GI50 (T-47D): 0.3 µM
- GI50 (K-562): 0.37 µM
- GI50 (OVCAR-3): 12.4 µM
- CC50 (Leukemia cell lines; [5]): 70.8 µM
- Log10 GI50 (Leukemia cell lines; Leukemia, average of the panel's cell lines): −6.17 mol/L
- Log10 GI50 (Colon cancer cell lines; Colon, average of the panel's cell lines): −5.17 mol/L
- CC50 (Colon cancer cell lines; [5]): ≥ 100 µM
- GI50 (M14): 19.8 µM
- GI50 (HL-60(TB)): 12.2 µM
- GI50 (HOP-92): 15.8 µM
- GI50 (NCI-H522): 27.4 µM
- GI50 (SN12C): 39.1 µM
- GI50 (SK-MEL-5): 0.18 µM
- GI50 (MOLT-4): 0.68 µM
- GI50 (NCI-H460): 15.1 µM
- Log10 GI50 (CNS cancer cell lines): −4.66 mol/L
- GI50 (SF-539): 21.2 µM
- GI50 (SNB-19): 16.6 µM
- CC50 [4, 5]: ≥ 100 µM
- Log10 GI50 ([4]; Ovarian, average of the panel's cell lines): −5.20 mol/L
- GI50 (RPMI-8226): 0.06 µM
